Laboratory results reported in patent US10750743B2, “Pyridazinone herbicides” (E.I. DU PONT DE NEMOURS AND COMPANY, priority 2015, dated 2020).

Assays:
Assay type in all cases: in vivo
[1] = test system: kochia (Kochia scoparia); experiment: Test A preemergence, directed soil spray, visual injury rating; settings: 0 is no effect, 100 is complete control
Summary of the method: (§1)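 Compounds in a surfactant-containing solvent were applied as a directed soil spray preemergence, or postemergence to plants 2-10 cm tall at the one- to two-leaf stage, in loam-sand blend. After about 10 d in the greenhouse, injury was rated visually against untreated controls on a 0-100 scale (100 = complete control).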

[2] = test system: ragweed (common ragweed, Ambrosia elatior); experiment: as above; settings: 0 is no effect, 100 is complete control
Summary of the method: as §1

[3] = test system: barnyardgrass (Echinochloa crus-galli); experiment: as above; settings: 0 is no effect, 100 is complete control
Summary of the method: as §1

[4] = test system: ryegrass, It. (Italian ryegrass, Lolium multiflorum); experiment: as above; settings: 0 is no effect, 100 is complete control
Summary of the method: as §1

[5] = test system: pigweed (Amaranthus retroflexus); experiment: as above; settings: 0 is no effect, 100 is complete control
Summary of the method: as §1

[6] = test system: foxtail, giant (giant foxtail, Setaria faberii); experiment: as above; settings: 0 is no effect, 100 is complete control
Summary of the method: as §1

[7] = test system: blackgrass (Alopecurus myosuroides); experiment: Test A postemergence application, visual injury rating; settings: 0 to 100 scale, 0 no effect, 100 complete control
Summary of the method: as §1

[8] = test system: wheat (Triticum aestivum); experiment: as above; settings: 0 to 100 scale, 0 no effect, 100 complete control
Summary of the method: as §1

[9] = test system: corn (Zea mays); experiment: as above; settings: 0 to 100 scale, 0 no effect, 100 complete control
Summary of the method: as §1

[10] = test system: galium (catchweed bedstraw, Galium aparine); experiment: as above; settings: 0 to 100 scale, 0 no effect, 100 complete control
Summary of the method: as §1

[11] = test system: kochia (Kochia scoparia); experiment: as above; settings: 0 to 100 scale, 0 no effect, 100 complete control
Summary of the method: as §1

[12] = test system: ragweed (common ragweed, Ambrosia elatior); experiment: as above; settings: 0 to 100 scale, 0 no effect, 100 complete control
Summary of the method: as §1

[13] = test system: barnyardgrass (Echinochloa crus-galli); experiment: as above; settings: 0 to 100 scale, 0 no effect, 100 complete control
Summary of the method: as §1

[14] = test system: ryegrass, It. (Italian ryegrass, Lolium multiflorum); experiment: as above; settings: 0 to 100 scale, 0 no effect, 100 complete control
Summary of the method: as §1

[15] = test system: pigweed (Amaranthus retroflexus); experiment: as above; settings: 0 to 100 scale, 0 no effect, 100 complete control
Summary of the method: as §1

[16] = test system: foxtail, giant (giant foxtail, Setaria faberii); experiment: as above; settings: 0 to 100 scale, 0 no effect, 100 complete control
Summary of the method: as §1

[17] = test system: sedge, umbrella (small-flower umbrella sedge, Cyperus difformis); experiment: Test B flooded paddy test, visual rating; settings: Flood, 250 g ai/ha, applied to paddy water, rated after 13 to 15 d
Summary of the method: (§2)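 Plants grown to the 2-leaf stage. At treatment, pots were flooded to 3 cm above the soil, compound was applied directly to the paddy water, and that depth was held throughout. After 13 to 15 d in the greenhouse, response was rated visually against controls on a 0 (no effect) to 100 (complete control) scale.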

[18] = test system: ducksalad (Heteranthera limosa); experiment: Test B flooded paddy test, visual rating; settings: Flood, 250 g ai/ha, applied to paddy water, rated after 13 to 15 d
Summary of the method: as §2

[19] = test system: barnyardgrass (Echinochloa crus-galli); experiment: Test B flooded paddy test, visual rating; settings: Flood, 250 g ai/ha, applied to paddy water, rated after 13 to 15 d
Summary of the method: as §2

[20] = test system: rice (Oryza sativa); experiment: Test B flooded paddy test, visual rating; settings: Flood, 250 g ai/ha, applied to paddy water, rated after 13 to 15 d
Summary of the method: as §2

Cn1nc(Cl)c(O)c(-c2cccc3[nH]nnc23)c1=O [Compound 38]
0: Plant response rating (0 to 100 scale), Kochia ([1]; 31 g ai/ha) | Plant response rating (0 to 100 scale), Kochia ([1]; 125 g ai/ha) | Plant response rating (0 to 100 scale), Ragweed ([2]; 31 g ai/ha) | Plant response rating (0 to 100 scale), Ragweed ([2]; 125 g ai/ha) | Plant response rating (0 to 100 scale), Barnyardgrass ([3]; 31 g ai/ha) | Plant response rating (0 to 100 scale), Barnyardgrass ([3]; 125 g ai/ha) | Plant response rating (0 to 100 scale), Ryegrass, It. ([4]; 31 g ai/ha) | Plant response rating (0 to 100 scale), Ryegrass, It. ([4]; 125 g ai/ha) | Plant response rating (0 to 100 scale), Pigweed ([5]; 31 g ai/ha) | Plant response rating (0 to 100 scale), Pigweed ([5]; 125 g ai/ha) | Plant response rating (0 to 100 scale), Foxtail, Giant ([6]; 31 g ai/ha) | Plant response rating (0 to 100 scale), Foxtail, Giant ([6]; 125 g ai/ha) | Blackgrass plant response rating ([7]; 31 g ai/ha) | Blackgrass plant response rating ([7]; 125 g ai/ha) | Wheat plant response rating ([8]; 31 g ai/ha) | Wheat plant response rating ([8]; 125 g ai/ha) | Corn plant response rating ([9]; 31 g ai/ha) | Corn plant response rating ([9]; 125 g ai/ha) | Galium plant response rating ([10]; 31 g ai/ha) | Galium plant response rating ([10]; 125 g ai/ha) | Kochia plant response rating ([11]; 31 g ai/ha) | Kochia plant response rating ([11]; 125 g ai/ha) | Ragweed plant response rating ([12]; 31 g ai/ha) | Ragweed plant response rating ([12]; 125 g ai/ha) | Barnyardgrass plant response rating ([13]; 31 g ai/ha) | Barnyardgrass plant response rating ([13]; 125 g ai/ha) | Ryegrass, It. plant response rating ([14]; 31 g ai/ha) | Ryegrass, It. plant response rating ([14]; 125 g ai/ha) | Pigweed plant response rating ([15]; 31 g ai/ha) | Pigweed plant response rating ([15]; 125 g ai/ha) | Foxtail, Giant plant response rating ([16]; 31 g ai/ha) | Foxtail, Giant plant response rating ([16]; 125 g ai/ha) | Sedge, Umbrella plant response rating (0 to 100 scale, 0 is no effect, 100 is complete control) [17] | Ducksalad plant response rating (0 to 100 scale, 0 is no effect, 100 is complete control) [18] | Barnyardgrass plant response rating (0 to 100 scale, 0 is no effect, 100 is complete control) [19] | Rice plant response rating (0 to 100 scale, 0 is no effect, 100 is complete control) [20]

CCc1sc2ncccc2c1-c1c(OC(=O)C2CC2)c(C)nn(C)c1=O [Compound 21]
0: Plant response rating (0 to 100 scale), Kochia ([1]; 125 g ai/ha) | Plant response rating (0 to 100 scale), Kochia ([1]; 500 g ai/ha) | Plant response rating (0 to 100 scale), Ragweed ([2]; 125 g ai/ha) | Plant response rating (0 to 100 scale), Ragweed ([2]; 500 g ai/ha) | Plant response rating (0 to 100 scale), Barnyardgrass ([3]; 125 g ai/ha) | Plant response rating (0 to 100 scale), Barnyardgrass ([3]; 500 g ai/ha) | Plant response rating (0 to 100 scale), Ryegrass, It. ([4]; 125 g ai/ha) | Plant response rating (0 to 100 scale), Ryegrass, It. ([4]; 500 g ai/ha) | Plant response rating (0 to 100 scale), Pigweed ([5]; 125 g ai/ha) | Plant response rating (0 to 100 scale), Pigweed ([5]; 500 g ai/ha) | Plant response rating (0 to 100 scale), Foxtail, Giant ([6]; 125 g ai/ha) | Plant response rating (0 to 100 scale), Foxtail, Giant ([6]; 500 g ai/ha) | Blackgrass plant response rating ([7]; 125 g ai/ha) | Blackgrass plant response rating ([7]; 500 g ai/ha) | Wheat plant response rating ([8]; 125 g ai/ha) | Wheat plant response rating ([8]; 500 g ai/ha) | Corn plant response rating ([9]; 125 g ai/ha) | Corn plant response rating ([9]; 500 g ai/ha) | Kochia plant response rating ([11]; 125 g ai/ha) | Kochia plant response rating ([11]; 500 g ai/ha) | Ragweed plant response rating ([12]; 125 g ai/ha) | Ragweed plant response rating ([12]; 500 g ai/ha) | Barnyardgrass plant response rating ([13]; 125 g ai/ha) | Barnyardgrass plant response rating ([13]; 500 g ai/ha) | Ryegrass, It. plant response rating ([14]; 125 g ai/ha) | Ryegrass, It. plant response rating ([14]; 500 g ai/ha) | Foxtail, Giant plant response rating ([16]; 125 g ai/ha) | Foxtail, Giant plant response rating ([16]; 500 g ai/ha) | Sedge, Umbrella plant response rating (0 to 100 scale, 0 is no effect, 100 is complete control) [17] | Ducksalad plant response rating (0 to 100 scale, 0 is no effect, 100 is complete control) [18] | Barnyardgrass plant response rating (0 to 100 scale, 0 is no effect, 100 is complete control) [19] | Rice plant response rating (0 to 100 scale, 0 is no effect, 100 is complete control) [20]
30: Pigweed plant response rating ([15]; 500 g ai/ha)
10: Galium plant response rating ([10]; 125 g ai/ha) | Pigweed plant response rating ([15]; 125 g ai/ha)
20: Galium plant response rating ([10]; 500 g ai/ha)

CCc1sc2ncccc2c1-c1c(OC(=O)OC(C)C)c(C)nn(C)c1=O [Compound 20]
20: Pigweed plant response rating ([15]; 125 g ai/ha)
0: Plant response rating (0 to 100 scale), Kochia ([1]; 125 g ai/ha) | Plant response rating (0 to 100 scale), Kochia ([1]; 500 g ai/ha) | Plant response rating (0 to 100 scale), Ragweed ([2]; 125 g ai/ha) | Plant response rating (0 to 100 scale), Ragweed ([2]; 500 g ai/ha) | Plant response rating (0 to 100 scale), Barnyardgrass ([3]; 125 g ai/ha) | Plant response rating (0 to 100 scale), Barnyardgrass ([3]; 500 g ai/ha) | Plant response rating (0 to 100 scale), Ryegrass, It. ([4]; 125 g ai/ha) | Plant response rating (0 to 100 scale), Ryegrass, It. ([4]; 500 g ai/ha) | Plant response rating (0 to 100 scale), Pigweed ([5]; 125 g ai/ha) | Plant response rating (0 to 100 scale), Foxtail, Giant ([6]; 125 g ai/ha) | Plant response rating (0 to 100 scale), Foxtail, Giant ([6]; 500 g ai/ha) | Blackgrass plant response rating ([7]; 125 g ai/ha) | Blackgrass plant response rating ([7]; 500 g ai/ha) | Wheat plant response rating ([8]; 125 g ai/ha) | Wheat plant response rating ([8]; 500 g ai/ha) | Corn plant response rating ([9]; 125 g ai/ha) | Corn plant response rating ([9]; 500 g ai/ha) | Kochia plant response rating ([11]; 125 g ai/ha) | Kochia plant response rating ([11]; 500 g ai/ha) | Ragweed plant response rating ([12]; 125 g ai/ha) | Ragweed plant response rating ([12]; 500 g ai/ha) | Barnyardgrass plant response rating ([13]; 125 g ai/ha) | Barnyardgrass plant response rating ([13]; 500 g ai/ha) | Ryegrass, It. plant response rating ([14]; 125 g ai/ha) | Ryegrass, It. plant response rating ([14]; 500 g ai/ha) | Foxtail, Giant plant response rating ([16]; 125 g ai/ha) | Foxtail, Giant plant response rating ([16]; 500 g ai/ha) | Sedge, Umbrella plant response rating (0 to 100 scale, 0 is no effect, 100 is complete control) [17] | Ducksalad plant response rating (0 to 100 scale, 0 is no effect, 100 is complete control) [18] | Barnyardgrass plant response rating (0 to 100 scale, 0 is no effect, 100 is complete control) [19] | Rice plant response rating (0 to 100 scale, 0 is no effect, 100 is complete control) [20]
10: Galium plant response rating ([10]; 125 g ai/ha)
50: Pigweed plant response rating ([15]; 500 g ai/ha)
40: Plant response rating (0 to 100 scale), Pigweed ([5]; 500 g ai/ha) | Galium plant response rating ([10]; 500 g ai/ha)
